From paper PMC5650142, “GPR40 partial agonists and AgoPAMs: Differentiating effects on glucose and hormonal secretions in the rodent” (PLoS ONE, 2017)
Where “and” joins values, the source holds several entries; their conditions need not be identical. Equal values may be shown once.

Tests used:
GK rats = assay: GK rat acute efficacy (glucose, insulin, glucagon after single dose); type: in vivo; conditions: 10 mpk
Method: Ambient blood glucose was measured via tail snip with a glucometer (OneTouch Ultra, Lifescan Inc., Milpitas, CA). Body weights were then measured, and food was removed approximately 1 hr post lights on. Animals were sorted into treatment groups based on ambient glucose. At approximately 10 AM, glucose was measured and blood for insulin, glucagon, and drug exposure was collected. […] Each compound tested was dosed at its maximal effective dose determined through a series of dose titrations using this experimental paradigm (data not shown). Effects of treatment on glucose, insulin, and glucagon were measured at 1, 2, 4, and 24 hrs post dose. After the 4 hr blood collection, food was returned overnight and removed the next day at 1 hr post lights on.
Blood for insulin, glucagon, GLP-1, GIP, and PYY measurements was collected into K2EDTA Microtainer tubes (BD, Franklin Lakes, NJ) pre-treated with DPP4 inhibitor (Millipore, Billerica, MA) and cOmplete™ Protease Inhibitor Cocktail Tablets (Roche Diagnostics, Indianapolis, IN). Tubes were centrifuged for 10 minutes at 5000 RPM, and plasma was aliquotted for analysis. Plasma insulin levels were measured via EIA (Mesoscale Discovery ELISA Kit, Gaithersburg MD). Rat plasma total GLP-1 was measured using Total GLP-1 (ver.2) Assay Kit (Cat#: K150JVC). The measurement of active GLP-1 was carried out in a similar manner as that described for total GLP-1 assay with the exception that MSD Active GLP-1 (ver. 2) assay kit (Cat# K150JWC) was used. Rat plasma glucagon was measured using an in-house glucagon assay developed as a MSD format sandwich immunoassay (Merck & Co., Inc., MRL, Kenilworth, NJ USA). The antibody specificity was cross validated via mass- spec using procedures described in Lee et al. Briefly, MSD Streptavidin Gold plates were coated with 2 μg/ml biotin mouse monoclonal antibody generated to glucagon. Test samples were added to the plates and a separate Sulfo- tagged monoclonal antibody was used to detect the captured glucagon protein (2 μg/ml). The ELISA was carried out in the standard reagents in the MSD format. The plate was read on the SECTOR Imager 6000 Reader. Metabolic hormones GIP (Gastric Inhibitory Polypeptide) and PYY (Peptide YY) were measured in rat plasma using the Rat Metabolic Magnetic Bead Panel (EMD Millipore, Billerica, MA). The assay was performed according to manufacturer protocol.

[1] = test system: pancreatic islets from wild type and GPR40−/− mice; assay: Isolated pancreatic islets static GDIS assay (insulin, glucagon secretion); type: cell-based, mouse; parameters: Islet insulin / Islet insulin, mean: unit not given here; conditions: for glucagon secretion from islets: ex vivo; for Islet Glucagon / Islet insulin: individual replicates; for Islet Glucagon, mean / Islet insulin, mean: mean of replicates
Method: Pancreatic islets of Langerhans were isolated from wild type and GPR40^−/− mice (littermates) by collagenase digestion and discontinuous Ficoll gradient separation. […] Insulin secretion was determined by a 1-h static incubation in Krebs-Ringer bicarbonate (KRB) buffer in a 96-well format as previously described. […] The buffer was removed from the wells at the end of the incubation and assayed for insulin levels using the Insulin ELISA kit (ALPCO, Salem, NH) and glucagon level using glucagon ELISA kit (ALPCO, Salem, NH).

C[C@H](C(=O)O)[C@H](c1ccc2c(c1)O[C@H](C1CN(Cc3cc(C(F)(F)F)ccc3C(F)(F)F)C1)CC2)C1CC1 [AP3]
Plasma Glucagon Over Time (Fig 2C) (GK rats; time 0, individual animals): 19.5235 pg/mL and 95.1724 pg/mL and 78.4069 pg/mL and 68.928 pg/mL and 101.768 pg/mL and 68.1132 pg/mL and 64.8322 pg/mL and 90.2934 pg/mL
Plasma Insulin Over Time (Fig 2B) (GK rats; time 0, individual animals): 1.335 ng/mL and 3.288 ng/mL and 2.57 ng/mL and 2.616 ng/mL and 1.578 ng/mL and 2.696 ng/mL and 1.845 ng/mL and 1.5169 ng/mL
Plasma Glucagon Over Time (Fig 2C) (GK rats; time 1, individual animals): 91.082 pg/mL and 337.393 pg/mL and 327.979 pg/mL and 373.532 pg/mL and 338.805 pg/mL and 110.666 pg/mL and 312.795 pg/mL and 175.651 pg/mL
Plasma Insulin Over Time (Fig 2B) (GK rats; time 1, individual animals): 7.035 ng/mL and 11.786 ng/mL and 10.5354 ng/mL and 9.1461 ng/mL and 4.564 ng/mL and 7.402 ng/mL and 7.0553 ng/mL and 5.184 ng/mL
Plasma Glucagon Over Time (Fig 2C) (GK rats; time 2, individual animals): 309.053 pg/mL and 291.695 pg/mL and 285.862 pg/mL and 322.143 pg/mL and 116.312 pg/mL and 40.1476 pg/mL and 259.365 pg/mL and 215.877 pg/mL
Plasma Insulin Over Time (Fig 2B) (GK rats; time 2, individual animals): 3.782 ng/mL and 3.3115 ng/mL and 3.493 ng/mL and 3.854 ng/mL and 1.215 ng/mL and 0.8625 ng/mL and 2.2798 ng/mL and 2.163 ng/mL
Plasma Glucagon Over Time (Fig 2C) (GK rats; time 4, individual animals): 120.787 pg/mL and 261.082 pg/mL and 116.805 pg/mL and 218.976 pg/mL and 231.061 pg/mL and 206.193 pg/mL and 151.031 pg/mL and 315.618 pg/mL
Plasma Insulin Over Time (Fig 2B) (GK rats; time 4, individual animals): 3.033 ng/mL and 3.537 ng/mL and 3.038 ng/mL and 2.421 ng/mL and 1.582 ng/mL and 1.483 ng/mL and 2.06 ng/mL and 1.86 ng/mL
Plasma Glucagon Over Time (Fig 2C) (GK rats; time 24, individual animals): 114.227 pg/mL and 80.8254 pg/mL and 201.451 pg/mL and 177.87 pg/mL and 103.778 pg/mL and 114.567 pg/mL and 171.755 pg/mL and 119.088 pg/mL
Plasma Insulin Over Time (Fig 2B) (GK rats; time 24, individual animals): 1.556 ng/mL and 1.426 ng/mL and 1.797 ng/mL and 1.415 ng/mL and 0.6908 ng/mL and 1.576 ng/mL and 1.455 ng/mL and 1.848 ng/mL
glucagon secretion from islets ([1]; GPR40-/- mouse islets): abolished
Islet Glucagon ([1]; KO mouse islets, G2, 1uM): 25.089 pg/ml/ islet and 11.858 pg/ml/ islet and 9.721 pg/ml/ islet and 3.205 pg/ml/ islet and 12.4 pg/ml/ islet and 14.931 pg/ml/ islet and 18.163 pg/ml/ islet and 18.456 pg/ml/ islet and 21.346 pg/ml/ islet and 15.13 pg/ml/ islet
Islet insulin ([1]; KO mouse islets, G2, 1uM): 0.293 and 0.272 and 0.213 and 0.106 and 0.37 and 0.44 and 0.27 and 0.128 and 1.077 and 0.675
Islet Glucagon, mean ([1]; KO mouse islets, G2, 1uM): 15.0299 pg/ml/ islet
Islet insulin, mean ([1]; KO mouse islets, G2, 1uM): 0.3844
Islet Glucagon ([1]; KO mouse islets, G16, 1uM): 4.043 pg/ml/ islet and 5.474 pg/ml/ islet and 8.717 pg/ml/ islet and 11.984 pg/ml/ islet and 16.06 pg/ml/ islet and 18.271 pg/ml/ islet and 3.382 pg/ml/ islet and 7.691 pg/ml/ islet and 7.902 pg/ml/ islet and 2.338 pg/ml/ islet
Islet insulin ([1]; KO mouse islets, G16, 1uM): 5.28 and 3.491 and 4.033 and 2.378 and 3.966 and 1.757 and 3.131 and 3.522 and 3.781 and 3.035
Islet Glucagon, mean ([1]; KO mouse islets, G16, 1uM): 8.5862 pg/ml/ islet
Islet insulin, mean ([1]; KO mouse islets, G16, 1uM): 3.4374
Islet Glucagon ([1]; WT mouse islets, G2, 1uM): 38.183 pg/ml/ islet and 99.219 pg/ml/ islet and 47.629 pg/ml/ islet and 35.059 pg/ml/ islet and 41.718 pg/ml/ islet and 44.978 pg/ml/ islet and 113.083 pg/ml/ islet and 70.443 pg/ml/ islet and 44.123 pg/ml/ islet and 60.974 pg/ml/ islet
Islet insulin ([1]; WT mouse islets, G2, 1uM, listed as L-005427846): 1.34 and 1.9735 and 0.61 and 0.65 and 0.79 and 1.22 and 0.9145 and 1.416 and 1.5465 and 1.2555
Islet Glucagon, mean ([1]; WT mouse islets, G2, 1uM): 59.5409 pg/ml/ islet
Islet insulin, mean ([1]; WT mouse islets, G2, 1uM): 1.1716
Islet Glucagon ([1]; WT mouse islets, G16, 1uM): 19.839 pg/ml/ islet and 16.487 pg/ml/ islet and 37.465 pg/ml/ islet and 8.951 pg/ml/ islet and 23.354 pg/ml/ islet and 22.21 pg/ml/ islet and 33.167 pg/ml/ islet and 31.559 pg/ml/ islet and 48.792 pg/ml/ islet
Islet insulin ([1]; WT mouse islets, G16, 1uM, listed as L-005427846): 11.936 and 11.639 and 13.085 and 12.097 and 12.133 and 11.613 and 12.28 and 12.692 and 11.465 and 12.253
Islet Glucagon, mean ([1]; WT mouse islets, G16, 1uM): 26.8693 pg/ml/ islet
Islet insulin, mean ([1]; WT mouse islets, G16, 1uM): 12.1193
glucagon secretion from islets ([1]; WT mouse islets): significantly elevated
